Assays:
Conditions in all cases: 72 h
Vero E6 [1] = assay: drug sensitivity score (DSS) for viability; higher = more toxic; extreme values may be limits of the assay
U2OS [2] = assay: as above
HepG2 [3] = assay: as above
Caco-2 [4] = assay: as above
Vero E6 [5] = assay: relative viability EC50 (midpoint between 100% and the lowest measured viability); higher = less toxic
U2OS [6] = assay: as above
HepG2 [7] = assay: as above
Vero E6 [8] = assay: cell viability relative to DMSO; higher = less toxic
U2OS [9] = assay: as above
HepG2 [10] = assay: as above
Caco-2 [11] = assay: as above
Calu-3 [12] = assay: drug sensitivity score (DSS) for viability; higher = more toxic; extreme values may be limits of the assay
Calu-3 [13] = assay: relative viability EC50 (midpoint between 100% and the lowest measured viability); higher = less toxic
Calu-3 [14] = assay: cell viability relative to DMSO; higher = less toxic
Caco-2 [15] = assay: relative viability EC50 (midpoint between 100% and the lowest measured viability); higher = less toxic

Compound | drug sensitivity score (Vero E6 [1]) | drug sensitivity score (U2OS [2]) | drug sensitivity score (HepG2 [3]) | drug sensitivity score (Caco-2 [4]) | relative viability EC50 (Vero E6 [5]) [µM] | relative viability EC50 (U2OS [6]) [µM] | relative viability EC50 (HepG2 [7]) [µM] | cell viability (Vero E6 [8]; 1 nM) [%] | cell viability (Vero E6 [8]; 10 nM) [%] | cell viability (Vero E6 [8]; 100 nM) [%] | cell viability (Vero E6 [8]; 1000 nM) [%] | cell viability (Vero E6 [8]; 10000 nM) [%] | cell viability (U2OS [9]; 1 nM) [%] | cell viability (U2OS [9]; 10 nM) [%] | cell viability (U2OS [9]; 100 nM) [%] | cell viability (U2OS [9]; 1000 nM) [%] | cell viability (U2OS [9]; 10000 nM) [%] | cell viability (HepG2 [10]; 1 nM) [%] | cell viability (HepG2 [10]; 10 nM) [%] | cell viability (HepG2 [10]; 100 nM) [%] | cell viability (HepG2 [10]; 1000 nM) [%] | cell viability (HepG2 [10]; 10000 nM) [%] | cell viability (Caco-2 [11]; 1 nM) [%] | cell viability (Caco-2 [11]; 10 nM) [%] | cell viability (Caco-2 [11]; 100 nM) [%] | cell viability (Caco-2 [11]; 1000 nM) [%] | cell viability (Caco-2 [11]; 10000 nM) [%] | drug sensitivity score (Calu-3 [12]) | relative viability EC50 (Calu-3 [13]) [µM] | cell viability (Calu-3 [14]; 1 nM) [%] | cell viability (Calu-3 [14]; 10 nM) [%] | cell viability (Calu-3 [14]; 100 nM) [%] | cell viability (Calu-3 [14]; 1000 nM) [%] | cell viability (Calu-3 [14]; 10000 nM) [%] | relative viability EC50 (Caco-2 [15]) [µM]
CN1C(=O)CC[C@H]1c1cccnc1 [cotinine] | 0 | 0 | 0 | 5.4 | > 10 | > 10 | > 10 | 95.9 | 92.8 | 94 | 95.7 | 106 | 94.7 | 97.2 | 92.9 | 95.7 | 102 | 104 | 99.4 | 106 | 105 | 96.2 | 71.1 | 74.2 | 84.3 | 83 | 106 | – | – | – | – | – | – | – | –
Cc1c2oc3c(C)ccc(C(=O)N[C@@H]4C(=O)N[C@H](C(C)C)C(=O)N5CCC[C@H]5C(=O)N(C)CC(=O)N(C)[C@@H](C(C)C)C(=O)O[C@@H]4C)c3nc-2c(C(=O)N[C@@H]2C(=O)N[C@H](C(C)C)C(=O)N3CCC[C@H]3C(=O)N(C)CC(=O)N(C)[C@@H](C(C)C)C(=O)O[C@@H]2C)c(N)c1=O [dactinomycin] | 18.7 | 27.7 | 35.8 | 16.4 | 0.248 | 0.0387 | 0.0079 | 101 | 104 | 91.9 | 3.5 | 8.7 | 98.8 | 74.2 | 34.2 | 1.1 | 1.3 | 99 | 42.5 | 15.8 | 4.4 | 4.1 | 108 | 83.7 | 54.8 | 63.4 | 57.4 | 22.9 | 0.0187 | 99.5 | 75 | 41 | 29.7 | 37.4 | –
CON(C)C(=O)N1N=C(c2cc(F)ccc2F)S[C@@]1(CCCN)c1ccccc1 [filanesib] | 20.2 | 16.7 | 26.8 | 12.9 | 0.0172 | 0.0424 | 0.0056 | 106 | 81.9 | 45.1 | 46.4 | 40.7 | 98.2 | 97.8 | 50.8 | 43.5 | 43.8 | 98 | 50 | 35.1 | 34.1 | 34.4 | 96.7 | 76.6 | 68.7 | 68.4 | 62.1 | 2 | > 10 | 97 | 104 | 87.8 | 88.1 | 79.3 | –
CC(C)C[C@H](NC(=O)[C@@H](COC(C)(C)C)NC(=O)[C@H](Cc1ccc(O)cc1)NC(=O)[C@H](CO)NC(=O)[C@H](Cc1c[nH]c2ccccc12)NC(=O)[C@H](Cc1cnc[nH]1)NC(=O)[C@@H]1CCC(=O)N1)C(=O)N[C@@H](CCCNC(=N)N)C(=O)N1CCC[C@H]1C(=O)NNC(N)=O [goserelin-acetate] | 0.1 | 0 | 0 | 0.6 | > 10 | > 10 | > 10 | 91 | 104 | 104 | 95.3 | 88.7 | 107 | 101 | 99.2 | 98.7 | 96.7 | 108 | 92.9 | 100 | 92.1 | 98.7 | 96.9 | 106 | 96.6 | 73.5 | 94.1 | 0 | > 10 | 99.4 | 97.7 | 96.1 | 95.4 | 104 | –
COc1ccccc1OC(=O)c1ccccc1OC(C)=O [guacetisal] | 0 | 0 | 0 | – | > 10 | > 10 | > 10 | 101 | 105 | 101 | 102 | 98.9 | 97.3 | 96.8 | 99.2 | 104 | 99 | 97.1 | 115 | 104 | 104 | 88.4 | – | – | – | – | – | 0 | > 10 | 105 | 90.9 | 108 | 102 | 97.4 | –
CC(C)(C)NC(=O)[C@@H]1CN(Cc2cccnc2)CCN1C[C@@H](O)C[C@@H](Cc1ccccc1)C(=O)N[C@H]1c2ccccc2C[C@H]1O [indinavir] | 0 | 0 | 1.4 | – | > 10 | > 10 | > 10 | 117 | 78 | 97.6 | 104 | 89.9 | 98.4 | 98.2 | 92.5 | 103 | 93.5 | 99.4 | 88.7 | 109 | 93.3 | 79.8 | – | – | – | – | – | 0 | > 10 | 97 | 107 | 98.4 | 102 | 97.9 | –
CCN1C[C@]2(OC(=O)c3ccccc3NC(C)=O)CC[C@H](OC)[C@@]34[C@@H]2C[C@@H]([C@@H]13)[C@@]1(O)C[C@H](OC)[C@H]2C[C@@H]4[C@]1(O)[C@H]2OC [lappaconite] | – | 0 | 0 | 0 | – | > 10 | > 10 | – | – | – | – | – | 103 | 103 | 98.1 | 99.1 | 94.4 | 101 | 97.1 | 103 | 100 | 107 | 87.7 | 99 | 85.5 | 95.2 | 89.8 | 0 | > 10 | 103 | 86.1 | 94.1 | 102 | 106 | > 10
CC[C@@H](C(N)=O)N1CCCC1=O [levetiracetam] | – | 0 | 0 | 0 | – | > 10 | > 10 | – | – | – | – | – | 103 | 98.2 | 101 | 97.2 | 103 | 93.2 | 105 | 90 | 104 | 92 | 96.2 | 91.6 | 100 | 95.2 | 101 | 0 | > 10 | 87.4 | 91.8 | 98.6 | 103 | 103 | > 10
O=NN(CCCl)C(=O)NC1CCCCC1 [lomustine] | 0 | 0 | 0 | 3.2 | > 10 | > 10 | > 10 | 97.9 | 99.1 | 99.6 | 92.4 | 94.6 | 98.5 | 97.1 | 97.5 | 102 | 94 | 102 | 95 | 99.2 | 104 | 98.7 | 89.7 | 78.5 | 101 | 93.2 | 59 | 0 | > 10 | 87.1 | 102 | 88.9 | 104 | 96.1 | –
CC(=O)Oc1ccccc1C(=O)Nc1ncc([N+](=O)[O-])s1 [nitazoxanide] | 0 | 0 | 2.8 | 1.6 | > 10 | > 10 | – | 98.2 | 98.7 | 106 | 102 | 96.9 | 99.2 | 98.5 | 101 | 93.3 | 91.4 | 97.1 | 95.6 | 94.5 | 91 | 65.3 | 97.3 | 98.8 | 102 | 104 | 61.7 | 0 | > 10 | 102 | 103 | 107 | 99.1 | 98.8 | –
CN1CCN(c2cccc3[nH]c(=O)oc23)CC1 [pardoprunox] | – | 0 | 0 | 0 | – | > 10 | > 10 | – | – | – | – | – | 106 | 99.3 | 102 | 95.3 | 101 | 90.7 | 105 | 89.1 | 99.2 | 97.3 | 102 | 101 | 96.4 | 90.6 | 100 | 0 | > 10 | 95.8 | 93.2 | 102 | 107 | 99.1 | > 10
O=C(/C=C/C=C/c1ccc2c(c1)OCO2)N1CCCCC1 [piperine] | 0 | 0 | 0 | 1.6 | > 10 | > 10 | > 10 | 108 | 102 | 109 | 92.5 | 93.2 | 95.1 | 97.6 | 91.2 | 102 | 97.8 | 93.7 | 91.8 | 86.7 | 84.6 | 95.9 | 94.4 | 106 | 96.6 | 97.4 | 70.9 | 0 | > 10 | 92.4 | 103 | 101 | 106 | 90.1 | –
CCCOc1ccc2c(c1)CC[C@@H]1[C@@H]2CC[C@]2(C)[C@@H](OC)CC[C@@H]12 [promestriene] | – | 0 | 0 | 0 | – | > 10 | > 10 | – | – | – | – | – | 93.5 | 105 | 96.2 | 96.5 | 99.9 | 102 | 107 | 103 | 93 | 97.9 | 97.9 | 97.4 | 97.7 | 90.4 | 98.5 | 0 | > 10 | 99 | 90.9 | 97.5 | 92.3 | 104 | > 10
CCC(=O)NC[C@@H]1C[C@H]1c1cccc2c1CCO2 [tasimelteon] | – | 0 | 0 | 0 | – | > 10 | > 10 | – | – | – | – | – | 92.8 | 103 | 93.9 | 93.6 | 102 | 108 | 107 | 102 | 106 | 98.5 | 97.9 | 92.1 | 90.6 | 98 | 99.4 | 0 | > 10 | 91.1 | 103 | 91.9 | 103 | 103 | > 10

From the supplement of paper PMC13380429
